We go through 22 compounds from patent US20070179154A1, “Coumarin derivatives, process for their production and use thereof” (Takeda Pharmaceutical Company Limited, priority 2002, published 2007).

Each structure is given as a SMILES string.

For `Cc1cc2c(-c3cccc(C(=O)NC(C)(C)C)c3)c(CC(=O)Nc3ccc(Cl)cc3C(F)(F)F)c(=O)oc2cc1Cl` [Example 122], the melting point – broadly, the temperature of the solid-liquid transition – is 206 to 208 °C.

With `Cc1cc2c(-c3ccc(F)c(/C=C/C(=O)O)c3)c(CC(=O)Nc3ccc(Cl)cc3C(F)(F)F)c(=O)oc2cc1Cl` [Example 19, (2E)-3-[5-[7-chloro-3-[2-[[4-chloro-2-(trifluoromethyl)phenyl]amino]-2-oxoethyl]-6-methyl-2-oxo-2H-chromen-4-yl]-2-fluorophenyl]-2-propenoic acid], the melting point is 277 to 279 °C.

On to `COC(=O)c1cccc(-c2c(CC(=O)Nc3ccc(Cl)cc3C(F)(F)F)c(=O)oc3cc(Cl)c(CN4CCN(c5ccccc5)CC4)cc23)c1` [Example 109], for which the melting point was in the range of 130 to 132 °C.

`CCOC(=O)CCc1cccc(-c2c(CC(=O)Nc3ccc(F)cc3C(F)(F)F)c(=O)oc3cc(C)c(Cl)cc23)c1` [Example 10, ethyl 3-[3-[6-chloro-3-[2-[[4-fluoro-2-(trifluoromethyl)phenyl]amino]-2-oxoethyl]-7-methyl-2-oxo-2H-chromen-4-yl]phenyl]propionate]: the melting point was in the range of 158 to 160 °C.

On to `Cc1cc2c(-c3cccc(Cc4noc(=O)[nH]4)c3)c(CC(=O)Nc3ccccc3C(F)(F)F)c(=O)oc2cc1Cl` [Example 101], for which the melting point was 295 °C (dec.).

In turn, `CCOC(=O)CCc1cccc(-c2c(CC(=O)Nc3ccc(F)cc3C(F)(F)F)c(=O)oc3cc(Cl)ccc23)c1` [Example 12, ethyl 3-[3-[7-chloro-3-[2-[[4-fluoro-2-(trifluoromethyl)phenyl]amino]-2-oxoethyl]-2-oxo-2H-chromen-4-yl]phenyl]propionate] gave a melting point of 164 to 165 °C.

The compound `Cc1cc2c(-c3cccc(Cc4noc(=O)[nH]4)c3)c(CC(=O)Nc3ccc(F)cc3C(F)(F)F)c(=O)oc2cc1Cl` [Example 100] came in with a melting point of 161 to 164 °C.

In the case of `Cc1cc2c(-c3cccc(C(=O)O)c3)c(CC(=O)Nc3ccc(Cl)cc3C(F)(F)F)c(=O)oc2cc1Cl` [Example 1, 3-[7-chloro-3-[2-[[4-chloro-2-(trifluoromethyl)phenyl]amino]-2-oxoethyl]-6-methyl-2-oxo-2H-chromen-4-yl]benzoic acid], the melting point was in the range of 270 to 272 °C.

In turn, `CCOC(=O)CCc1cccc(-c2c(CC(=O)Nc3ccc(F)cc3C(F)(F)F)c(=O)oc3ccccc23)c1` [Example 13, ethyl 3-[3-[3-[2-[[4-fluoro-2-(trifluoromethyl)phenyl]amino]-2-oxoethyl]-2-oxo-2H-chromen-4-yl]phenyl]propionate] had a melting point of 163 to 164 °C.

`CCOC(=O)CCc1cccc(-c2c(CC(=O)Nc3ccc(F)cc3C(F)(F)F)c(=O)oc3cc(Cl)c(F)cc23)c1` [Example 11, ethyl 3-[3-[7-chloro-6-fluoro-3-[2-[[4-fluoro-2-(trifluoromethyl)phenyl]amino]-2-oxoethyl]-2-oxo-2H-chromen-4-yl]phenyl]propionate] came in with a melting point of 142 to 144 °C.

Regarding `CCOC(=O)/C=C/c1cc(-c2c(CC(=O)Nc3ccc(Cl)cc3C(F)(F)F)c(=O)oc3cc(Cl)c(C)cc23)ccc1F` [Example 3, ethyl (2E)-3-[5-[7-chloro-3-[2-[[4-chloro-2-(trifluoromethyl)phenyl]amino]-2-oxoethyl]-6-methyl-2-oxo-2H-chromen-4-yl]-2-fluorophenyl]-2-propenoate], the melting point was 160 to 162 °C.

`COC(=O)c1ccc(-c2c(CC(=O)Nc3ccc(F)cc3C(F)(F)F)c(=O)oc3cc(Cl)c(C)cc23)cc1` [Example 45, Methyl 4-(7-chloro-3-{2-[4-fluoro-2-(trifluoromethyl)anilino]-2-oxoethyl}-6-methyl-2-oxo-2H-chromen-4-yl)benzoate] came in with a melting point of 202 to 204 °C.

In turn, `Cc1cc2c(-c3cccc(C(=O)O)c3)c(CC(=O)Nc3ccc(F)cc3C(F)(F)F)c(=O)oc2cc1Cl` [Example 2] showed a melting point of 278 to 280 °C.

The compound `COC(=O)c1cccc(-c2c(CC(=O)Nc3ccc(F)cc3C(F)(F)F)c(=O)oc3cc(Cl)c(CN4CCN(c5ccccc5)CC4)cc23)c1` [Example 108] registered a melting point of 135 to 137 °C.

Compound `CCOC(=O)CCc1cccc(-c2c(CC(=O)Nc3ccccc3C(F)(F)F)c(=O)oc3cc(Cl)c(C)cc23)c1` [Example 9, ethyl 3-[3-[7-chloro-6-methyl-3-[2-[[2-(trifluoromethyl)phenyl]amino]-2-oxoethyl]-2-oxo-2H-chromen-4-yl]phenyl]propionate] yielded a melting point of 115 to 117 °C.

In turn, `Cc1cc2c(-c3cccc(-c4noc(=S)[nH]4)c3)c(CC(=O)Nc3ccc(F)cc3C(F)(F)F)c(=O)oc2cc1Cl` [Example 102, 2-{7-chloro-6-methyl-2-oxo-4-[3-(5-thioxo-4,5-dihydro-1,2,4-oxadiazol-3-yl)phenyl]-2H-chromen-3-yl}-N-[4-fluoro-2-(trifluoromethyl)phenyl]acetamide] came in with a melting point of 178 to 180 °C.

For the compound `Cc1cc2c(-c3cccc(/C=C/c4nnn[nH]4)c3)c(CC(=O)Nc3ccc(F)cc3C(F)(F)F)c(=O)oc2cc1Cl` [Example 41, 2-(7-chloro-6-methyl-2-oxo-4-{3-[(E)-2-(1H-tetrazol-5-yl)ethenyl]phenyl}-2H-chromen-3-yl)-N-[4-fluoro-2-(trifluoromethyl)phenyl]acetamide], the melting point is 216 to 218 °C.

Take `Cc1cc2c(-c3cccc(-c4nsc(=O)[nH]4)c3)c(CC(=O)Nc3ccc(F)cc3C(F)(F)F)c(=O)oc2cc1Cl` [Example 104, 2-{7-chloro-6-methyl-2-oxo-4-[3-(5-oxo-4,5-dihydro-1,2,4-thiadiazol-3-yl)phenyl]-2H-chromen-3-yl}-N-[4-fluoro-2-(trifluoromethyl)phenyl]acetamide]: the melting point is 269 to 271 °C (dec.).

The compound `Cc1cc2c(-c3cccc(/C=C/C(=O)O)c3)c(CC(=O)Nc3ccccc3C(F)(F)F)c(=O)oc2cc1Cl` [Example 15, (2E)-3-[3-[7-chloro-6-methyl-2-oxo-3-(2-oxo-2-[[2-(trifluoromethyl)phenyl]amino]ethyl)-2H-chromen-4-yl]phenyl]-2-propenoic acid] came in with a melting point of 252 to 254 °C.

`CCOC(=O)CCc1cccc(-c2c(CC(=O)Nc3ccc(F)cc3C(F)(F)F)c(=O)oc3cc(Cl)c(C)cc23)c1` [Example 8, ethyl 3-[5-[7-chloro-3-[2-[[4-fluoro-2-(trifluoromethyl)phenyl]amino]-2-oxoethyl]-6-methyl-2-oxo-2H-chromen-4-yl]phenyl]propionate]: the melting point lay in the range of 121 to 123 °C.

`Cc1cc2oc(=O)c(CC(=O)Nc3ccc(F)cc3C(F)(F)F)c(-c3cccc(/C=C/C(=O)O)c3)c2cc1Cl` [Example 16, (2E)-3-[3-[6-chloro-3-(2-[[4-fluoro-2-(trifluoromethyl)phenyl]amino]-2-oxoethyl)-7-methyl-2-oxo-2H-chromen-4-yl]phenyl]-2-propenoic acid]: the melting point was 272 to 274 °C.

With `Cc1cc2c(-c3cccc(-c4noc(=O)[nH]4)c3)c(CC(=O)Nc3ccc(F)cc3C(F)(F)F)c(=O)oc2cc1Cl` [Example 99, 2-{7-chloro-6-methyl-2-oxo-4-[3-(5-oxo-4,5-dihydro-1,2,4-oxadiazol-3-yl)phenyl]-2H-chromen-3-yl}-N-[4-fluoro-2-(trifluoromethyl)phenyl]acetamide], the melting point lay in the range of 285 to 287 °C.
